In PMC8279416, “Structural Fine-Tuning of Desmuramylpeptide NOD2 Agonists Defines Their In Vivo Adjuvant Activity” (Journal of Medicinal Chemistry, 2021):

Legend:
[1] = tested on: CD8+ T cells (OT I) cocultured with BMDCs; experiment: BMDC antigen cross-presentation assay with ovalbumin-specific CD8+ T cells; format: cell-based, mouse; conditions: ovalbumin 50 μg/mL, 72 h coculture
Method: To evaluate the adjuvant potential of the two most-promising desmuramylpeptides, 68 and 75, in terms of their effects on DC-mediated activation of CD4^+ and CD8^+ T cells, we used an in vitro antigen-presentation assay with C57BL/6 mouse bone-marrow-derived DCs (BMDCs). Following stimulation with 68 and 75 (1 or 10 μM) in the presence of ovalbumin soluble protein (50 μg/mL), BMDCs were cocultured with carboxyfluorescein succinimidyl ester (CFSE)-labeled naive ovalbumin-specific CD4^+ or CD8^+ T cells, which were isolated from splenocytes of OT II and OT I transgenic mice, respectively. After 3 days of coculture, CD25 (α subunit of IL-2 receptor)[108] expression was determined, along with the CFSE dilution, as markers of T-cell activation and proliferation, respectively. Furthermore, we also examined how this desmuramylpeptide-induced priming of T cells affected the secreted cytokine profiles in BMDC/T-cell cocultures.
CD4^+ and CD8^+ T cells were purified from splenocytes of OT II and OT I transgenic mice using CD4^+ and CD8^+ T cell isolation kits (Miltenyi Biotec, Germany), according to manufacturer instructions. […] Live Thy1.2^+/CD4^+ and Thy1.2^+/CD8^+ were evaluated for CFSE dilution and CD25 expression. […] Statistical significance was determined by one-way ANOVA followed by Dunnett’s multiple comparisons test.

NIH/OlaHsd mice = experiment: In vivo ovalbumin-specific antibody response, second experiment (neutral, anionic, mannosylated liposomes); set-up: species or system mouse; conditions: for Log10 (anti-OVA IgG1/anti-OVA IgG2a): second in vivo experiment, 0.15 μmol adjuvant, one week after second booster, mean ± SEM of 5 mice
Method: To determine whether the adjuvanticity of 75 can be modulated through changes to the liposomal formulation, a second in vivo experiment was designed in which the adjuvant activities of three different liposomal compositions were compared. Neutral liposomes were prepared from egg phosphatidylcholine and cholesterol.
Multilamellar liposomes were prepared by the modified thin lipid film method as described previously.[130],[131] For the preparation of neutral liposomes, a 7:5 molar ratio of egg-phosphatidylcholine and cholesterol was used. For the preparation of negatively charged liposomes, a 7:5:1 molar ratio of egg-phosphatidylcholine, cholesterol, and dicetylphosphate was used, while a 7:5:0.5 molar ratio of egg-phosphatidylcholine, cholesterol, and Man-PEG-Pam was used in the preparation of mannosylated liposomes. Lipids (total lipid concentration, 4 mg/mL) were dissolved in chloroform/methanol (2:1). A methanol or chloroform/methanol solution of MDP or the desmuramylpeptides was added to the lipid solution for a final concentration of 2 mM and 1.5 mM for the first (Figure 10) and second (Figure 11) experiments, respectively. After rotary evaporation of the solvent, the remaining lipid film was dried in vacuum for 1 h and then dispersed by gentle handshaking in an ovalbumin solution in saline (0.0667 and 0.1 mg/mL for the first and second experiments, respectively). This was then left overnight at 4 °C to swell and stabilize. Liposome size was reduced by sonification. Nonentrapped material was not separated from liposomes, and the complete liposome suspension was used for immunizations.
For the first experiment (Figure 10), sex-matched NIH/OlaHsd mice (five per group) were immunized subcutaneously in the tail base and boosted one time after 21 days. The injection volume in all experimental groups was 0.15 mL per mouse, which corresponds to 10 μg of OVA, […], and 0.30 μmol of MDP and desmuramylpeptides. For the second experiment (Figure 11), sex-matched NIH/OlaHsd mice (five per group) were immunized and boosted two times subcutaneously into the tail base at 21-day intervals. The injection volume in all experimental groups was 0.1 mL per mouse, which corresponds to 10 μg of OVA, 400 μg of lipids, and 0.15 μmol of MDP and 75. The mice were anesthetized with ip application of ketamine/xylazine (25 mg/kg each) prior to blood collection from the axillary plexus on the seventh day after the last booster dose. Individual serum from each animal was decomplemented at 56 °C for 30 min and then stored at −20 °C until tested.
ELISA assays were performed as detailed previously.[46] Briefly, high-binding ELISA plates (Costar, U.S.A.) were coated with a 15 μg/mL solution of ovalbumin in carbonate buffer, pH 9.6, and incubated overnight at room temperature. Nonspecific antibody binding was blocked with 0.5% w/v bovine serum albumin in PBS-T (0.05% (v/v) Tween 20 in phosphate-buffered saline) for 2 h at 37 °C. After washing, five serial dilutions of mice sera and standard preparations were added in duplicate. Plates were incubated overnight at room temperature, washed, and analyzed for ovalbumin-specific IgG levels by incubation with HRP-conjugated goat anti-mouse IgG (2 h at 37 °C) and then, after washing, with 0.6 mg/mL o-phenylenediaminedihydrochloride solution in citrate-phosphate buffer, pH 5.0, with 0.5 μL of 30% H2O2 per milliliter for 30 min at room temperature in the dark. The enzymatic reaction was stopped with 12.5% H2SO4, and absorbance at 492 nm was measured using a microplate reader (Thermo Fisher Scientific, Waltham, MA, U.S.A.). For the determination of ovalbumin-specific IgG1 and IgG2a, the plates were incubated with biotin-conjugated rat anti-mouse IgG1 or IgG2a (2 h at 37 °C) and subsequently with streptavidin–peroxidase for another 2 h at 37 °C. After washing, the substrate solution was added and incubated for 30 min at room temperature in the dark, as described above. […]

Row | SMILES | BMDC processing and cross-presentation of ovalbumin to CD8+ T cells [1] | Ovalbumin-specific IgG2a response (in words) (NIH/OlaHsd mice; mannosylated liposomes, 0.15 μmol adjuvant per dose) | Ovalbumin-specific IgG1 response (in words) (NIH/OlaHsd mice; negatively charged liposomes, 0.15 μmol adjuvant per dose) | Ovalbumin-specific IgG levels compared to controls without adjuvant (in words) (NIH/OlaHsd mice; regardless of the liposomal composition) | Log10 (anti-OVA IgG1/anti-OVA IgG2a) (NIH/OlaHsd mice; anionic liposomes) | Log10 (anti-OVA IgG1/anti-OVA IgG2a) (NIH/OlaHsd mice; mannosylated liposomes) | Log10 (anti-OVA IgG1/anti-OVA IgG2a) (NIH/OlaHsd mice; neutral liposomes)
1 | COc1cc(/C=C/C(=O)NCC(=O)N[C@H](C(=O)N[C@H](CCC(=O)OC2CCCC2)C(=O)OC2CCCC2)C(C)C)ccc1O [Compound 68, Dicyclopentyl ((E)-3-(4-Hydroxy-3-methoxyphenyl)acryloyl)glycyl-L-valyl-D-glutamate] | significantly increased |  |  |  |  |  | 
2 | CCCCCCCCCCCCCCCCCC(=O)Oc1ccc(/C=C/C(=O)NCC(=O)N[C@H](C(=O)N[C@H](CCC(=O)OCC)C(=O)OCC)C(C)C)cc1OC [Compound 75, Diethyl ((E)-3-(3-Methoxy-4-(stearoyloxy)phenyl)acryloyl)glycyl-L-valyl-D-glutamate] |  | enhanced the production of IgG2a antibodies | diminished IgG1 activity | increased the levels of IgG antibodies | 1.84 ± 0.20 | 2.15 ± 0.17 | 2.27 ± 0.17
